# Experimental data: patent publication US8791102B2, “Acetanilide sphingosine-1-phosphate receptor antagonists” (Exelixis, Inc., priority 2008, dated 2014)
# Target: T1, human S1P1 receptors (Homo sapiens, UniProt P21453)
# T1 construct: host or cells: HEK293
# Assay: S1P1R antagonist assay (fluorescent membrane potential dye, cAMP readout)
# Type: cell-based
# Conditions: HEK293 cells expressing human S1P1 receptors and CNG channel; 500 nM NECA; S1P1R agonist 10 nM; 90 minutes; read-out: EC50 or IC50 value
# Description: The S1P1R antagonist assay is a fluorescent membrane potential dye measurement assay, indicative of intracellular cAMP changes due to G protein-coupled receptor activation. HEK293 cells engineered to express human S1P1 receptors and a cyclic nucleotide-gated (CNG) channel are obtained from BD Biosciences, 80300-250. The CNG channels are activated by elevated levels of cAMP, resulting in ion flux and cell membrane depolarization. Membrane depolarization is detected with a membrane potential dye. Stimulation of the cells with 5′-(N-ethylcarboxamido)adenosine (NECA), an A2b receptor agonist (Sigma, E2387), elicits an A2bR-dependent increase in cAMP.
# Subsequent exposure of the cells to a S1P1R agonist suppresses the NECA induced increase in cAMP through S1P1R-specific signaling by inhibiting adenylyl cyclase and the formation of cAMP from ATP. The degree to which a test compound overcomes the S1P1R agonist suppression of the NECA induced increase in cAMP is a measure of S1P1R antagonist activity. Antagonist activity is quantified as the IC50 (i.e., the concentration needed to elicited one-half of the maximum response of the test compound) and/or as the EC50 (i.e., the concentration needed to elicited one-half of the NECA induced stimulation).
# Day 1: Freshly thawed cells were plated into 384-well plates (Corning, 3683) at a density of 14,000 cells/well in 20 μL, complete media and incubated for 16 hours at 37° C., 5% CO2 and 99% relative humidity. Complete media included Dulbecco's modified Eagle's medium (Invitrogen, 11965-092), 10% Fetal bovine serum (Hyclone, SH30071.03), 250 μg/mL geneticin (Invitrogen, 10131-027), and 1 μg/mL Puromycin (Fluka, 82595).
# Day 2: Membrane potential dye (20 μL, BD Biosciences, 341833) was added to each well and the plates were incubated for 2.5 hours at ambient temperature. Test compounds (20 μL) were added to the wells at various concentrations (≦10 μM, 1 to 3 dilutions) in a NECA base solution and incubated for 90 minutes in the presence of the S1P1R agonist {4-((4-phenyl-5-trifluoromethyl-2-thienyl)methoxy)benzyl}-3-azetidinecarboxylic acid (10 nM). The NECA-base solution contained Dulbecco's phosphate-buffered saline (Invitrogen, 14190-136), 2.5% DMSO (Fluka, 41648), 25 μM Ro 20-1724 (Sigma, B8279), and 500 nM NECA).
# Assay plates were read with a PerkinElmer EnVision reader (Excitation 350 nm, Emission 590 nm) at time T=0 minutes, before compound addition and at time T=90 minutes. The signal was calculated as the ratio T90/T0. Data was analyzed in ActivityBase XE and graphs showing log of compound concentration (X-axis) vs. % activity (Y-axis) were generated for IC50 determinations. Percent activity was calculated with the following formula: (Signal−Agonist Control Signal)/(NECA Control Signal−Agonist Control Signal)×100.
# T1 sequence (P21453 whole entry): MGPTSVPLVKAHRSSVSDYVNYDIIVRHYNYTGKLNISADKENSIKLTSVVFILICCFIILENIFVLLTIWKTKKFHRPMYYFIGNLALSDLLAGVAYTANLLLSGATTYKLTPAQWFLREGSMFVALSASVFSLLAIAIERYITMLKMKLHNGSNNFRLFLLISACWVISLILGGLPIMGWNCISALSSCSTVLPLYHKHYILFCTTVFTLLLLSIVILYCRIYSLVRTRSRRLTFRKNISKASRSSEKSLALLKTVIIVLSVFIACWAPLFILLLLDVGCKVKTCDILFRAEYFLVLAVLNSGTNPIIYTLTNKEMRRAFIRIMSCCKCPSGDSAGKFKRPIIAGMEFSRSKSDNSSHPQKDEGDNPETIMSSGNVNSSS
row,SMILES,IC50 [nM]
1,"CCOc1ccc(C(=O)NC(COCc2ccccc2)C(=O)Nc2ccc(Oc3ccccc3)cc2)cc1 (centres unmarked) [Compound 281, 4-(ethyloxy)-N-(2-oxo-1-{[(phenylmethyl)oxy]methyl}-2-{[4-(phenyloxy)phenyl]amino}ethyl)benzamide]",> 1000
2,"O=C(NC(COCc1ccccc1)C(=O)Nc1ccc(Oc2ccccc2)cc1)c1cn[nH]c1 (centres unmarked) [Compound 355, N-(2-oxo-1-{[(phenylmethyl)oxy]methyl}-2-{[4-(phenyloxy)phenyl]amino}ethyl)-1H-pyrazole-4-carboxamide]",300 to 1000
3,"O=C(Cc1cc(Cl)ccc1Cl)NC(COCc1ccccc1)C(=O)Nc1ccc(Oc2ccccc2)cc1 (centres unmarked) [Compound 190, 3-(benzyloxy)-2-(2-(2,5-dichlorophenyl)acetamido)-N-(4-phenoxyphenyl)propanamide]",300 to 1000
4,"CCOCC(=O)N1C[C@H](Cc2ccccc2)C[C@H]1C(=O)Nc1ccc(Oc2ccc(F)cc2)cc1 [Compound 121, (2S,4R)-4-benzyl-1-(2-ethoxyacetyl)-N-(4-(4-fluorophenoxy)phenyl)pyrrolidine-2-carboxamide]",≤ 300
5,"CSc1ccc(C(=O)NC(COCc2ccccc2)C(=O)Nc2ccc(Oc3ccccc3)cc2)cc1 (centres unmarked) [Compound 306, 4-(methylthio)-N-(2-oxo-1-{[(phenylmethyl)oxy]methyl}-2-{[4-(phenyloxy)phenyl]amino}ethyl)benzamide]",> 1000
6,"COc1cccc(N2CCN(CC(=O)N[C@@H](COCc3ccccc3)C(=O)Nc3ccc(Oc4ccc(F)cc4)cc3)CC2)c1 [Compound 42, (S)-3-(benzyloxy)-N-(4-(4-fluorophenoxy)phenyl)-2-(2-(4-(3-methoxyphenyl)piperazin-1-yl)acetamido)propanamide]",> 1000
7,"O=C(Cc1ccc(OCc2ccccc2)cc1)NC(COCc1ccccc1)C(=O)Nc1ccc(Oc2ccccc2)cc1 (centres unmarked) [Compound 271, 4-benzyloxy-N-(2-oxo-1-{[(phenylmethyl)oxy]methyl}-2-{[4-(phenyloxy)phenyl]amino}ethyl)phenylacetamide]",> 1000
8,"O=C(Cc1cccnc1)N[C@@H](COCc1ccccc1)C(=O)Nc1ccc(Oc2ccc(F)cc2)cc1 [Compound 247, (S)-3-(benzyloxy)-N-(4-(4-fluorophenoxy)phenyl)-2-(2-(pyridin-3-yl)acetamido)propanamide]",≤ 300
9,"O=C(Cc1ccccc1F)NC(COCc1ccccc1)C(=O)Nc1ccc(Oc2ccccc2)cc1 (centres unmarked) [Compound 183, 3-(benzyloxy)-2-(2-(2-fluorophenyl)acetamido)-N-(4-phenoxyphenyl)propanamide]",300 to 1000
10,"O=C(CCc1c[nH]c2ccccc12)NC(COCc1ccccc1)C(=O)Nc1ccc(Oc2ccccc2)cc1 (centres unmarked) [Compound 383, N-(2-oxo-1-{[(phenylmethyl)oxy]methyl}-2-{[4-(phenyloxy)phenyl]amino}ethyl)-3-(1H-indol-3-yl)propanamide]",> 1000
11,"O=C(NC(COCc1ccccc1)C(=O)Nc1ccc(Oc2ccccc2)cc1)c1ccccc1-n1cccc1 (centres unmarked) [Compound 314, N-(2-oxo-1-{[(phenylmethyl)oxy]methyl}-2-{[4-(phenyloxy)phenyl]amino}ethyl)-2-(1H-pyrrol-1-yl)benzamide]",> 1000
12,"O=C(NC(COCc1ccccc1)C(=O)Nc1ccc(Oc2ccccc2)cc1)c1cc2ccccc2[nH]1 (centres unmarked) [Compound 386, N-(2-oxo-1-{[(phenylmethyl)oxy]methyl}-2-{[4-(phenyloxy)phenyl]amino}ethyl)-1H-indole-2-carboxamide]",> 1000
13,"Cc1cncc(C(=O)NC(COCc2ccccc2)C(=O)Nc2ccc(Oc3ccccc3)cc2)c1 (centres unmarked) [Compound 18, N-(3-(benzyloxy)-1-oxo-1-(4-phenoxyphenylamino)propan-2-yl)-5-methylnicotinamide]",> 1000
14,"CCCOc1ccc(C(=O)NC(COCc2ccccc2)C(=O)Nc2ccc(Oc3ccccc3)cc2)cc1 (centres unmarked) [Compound 345, N-(2-oxo-1-{[(phenylmethyl)oxy]methyl}-2-{[4-(phenyloxy)phenyl]amino}ethyl)-4-(propyloxy)benzamide]",> 1000
